Here are results for 11 compounds from patent US3966739A, “Pyrrole-carboxylic acids lumilysergol esters” (Societa' Farmaceutici Italia S.p.A., priority 1971, dated 1976).

In brackets after ≈: the same amount, converted by molar mass. Where a name gives a salt, the structure may show the parent alone. Read-outs that look alike come from different tables or passages of the source.

The subject of experiment [1] is spasmogen action of adrenaline on isolated seminal small bladder. In words: adrenolytic activity on isolated seminal small bladder of guinea-pig (inhibition of spasmogen action of adrenaline). Conditions: Cavia porcellus; isolated seminal small bladder of guinea-pig suspended in physiologic solution; read-out: concentrations inhibiting 50% of the spasmogen action of adrenaline (IC50). Type of experiment: cell-based. From the text:
The adrenolytic activity of the compounds of the invention has been tested by employing dihydroergotamine as a comparison compound. Particularly, it has been determined on the isolated seminal small bladder of guinea-pig suspended in physiologic solution.
Table I reports the concentrations inhibiting 50% of the spasmogen action of adrenaline (IC50).

In experiment [2] the test system is lethal effects of adrenaline. Nature of the experiment: adrenolytic activity in vivo in the rat (reduction of lethal effects of adrenaline). From the text:
The same activity, in vivo, has been determined in the rat. Table II reports the doses ID50 (in mg/kg) capable of reducing 50% of the lethal effects of adrenaline by intravenous administration (i.v.) and oral administration (os) of the compounds under examination.

The mark [3] stands for this setting: intravenous administration (i.v.), read-out: ID50 (i.v.): dose reducing 50% of the lethal effects of adrenaline.
Setting [4] is: oral administration (os), read-out: ID50 (os): dose reducing 50% of the lethal effects of adrenaline.

`CO[C@]12C[C@@H](COC(=O)c3c(C)cc(C)n3C)CN(C)[C@@H]1Cc1cn(C)c3cccc2c13` [1,6-Dimethyl-8β-[1', 3',5'-trimethyl-2'-pyrroyloxymethyl]-10α-methoxyergoline maleate]: the IC50 in experiment [1] stood at 0.01 µg/mL. For the same compound, the figures for the ED50 in experiment [2] (setting [3]) and in experiment [2] (setting [4]) were 0.25 mg/kg and 0.2 mg/kg, respectively.
Consider `CO[C@]12C[C@@H](COC(=O)c3ccc[nH]3)CN(C)[C@@H]1Cc1cn(C)c3cccc2c13` [1,6-Dimethyl-8β-(2'-pyrroyloxymethyl)-10α-methoxyergoline], for which the IC50 in experiment [1] came out at 0.005 µg/mL (≈ 0.0127 µM). Also, the ED50 in experiment [2] (setting [3]) stood at 0.005 mg/kg; in experiment [2] (setting [4]), 0.5 mg/kg.
The matching figures for `CO[C@]12C[C@@H](COC(=O)c3[nH]c(C)cc3C)CN(C)[C@@H]1Cc1cn(C)c3cccc2c13` [1,6-Dimethyl-8β-(3',5'-dimethyl-2'-pyrroyloxymethyl)-10α-methoxyergoline]: 0.05 µg/mL (≈ 0.119 µM), 0.065 mg/kg and 0.1 mg/kg.
On the same counts, the results for `COc1c[nH]cc1C(=O)OC[C@H]1CN(C)[C@@H]2Cc3cn(C)c4cccc(c34)[C@@]2(OC)C1` [1,6-Dimethyl-8β-[4'-methoxy-3'-pyrroyloxymethyl]-10α-methoxyergoline] are 0.1 µg/mL (≈ 0.236 µM), 0.075 mg/kg and 0.3 mg/kg.
As for `CO[C@]12C[C@@H](COC(=O)c3cccn3C)CN(C)[C@@H]1Cc1cn(C)c3cccc2c13` [1,6-dimethyl-8β-[2'-(N-methyl)-pyrroyloxymethyl]-10α-methoxyergoline], the IC50 in experiment [1] amounted to 0.005 µg/mL (≈ 0.0123 µM). The ED50 in experiment [2] (setting [3]) was found to be 0.025 mg/kg; in experiment [2] (setting [4]), 1 mg/kg.
The matching figures for `CO[C@]12C[C@@H](COC(=O)c3[nH]c(C)c(Br)c3C)CN(C)[C@@H]1Cc1cn(C)c3cccc2c13` [1,6-Dimethyl-8β-[3', 5'-dimethyl-4'-bromo-2'-pyrroyloxymethyl]-10α-methoxyergoline]: 0.1 µg/mL (≈ 0.2 µM), > 1 mg/kg and 0.5 mg/kg.
On the same counts, the results for `CO[C@]12C[C@@H](COC(=O)c3cc[nH]c3C)CN(C)[C@@H]1Cc1cn(C)c3cccc2c13` [1,6-Dimethyl-8β-[2'-methyl-3'-pyrroyloxymethyl]-10α-methoxyergoline] are 0.05 µg/mL (≈ 0.123 µM), 0.05 mg/kg and 0.25 mg/kg.
The matching figures for `CO[C@]12C[C@@H](COC(=O)c3cc[nH]c3)CN(C)[C@@H]1Cc1cn(C)c3cccc2c13` [1,6-Dimethyl-8β-(3'-pyrroyloxymethyl)-10α-methoxyergoline]: 0.005 µg/mL (≈ 0.0127 µM), 0.05 mg/kg and 0.5 mg/kg.
With `CCOC(=O)c1c(C)[nH]c(C(=O)OC[C@H]2CN(C)[C@@H]3Cc4cn(C)c5cccc(c45)[C@@]3(OC)C2)c1C` [1,6-Dimethyl-8β-[3', 5'-dimethyl-4'-carbethoxy-2'-pyrroyloxymethyl]-10α-methoxyergoline], the IC50 in experiment [1] was determined as 1 µg/mL (≈ 2.03 µM). Also, the ED50 in experiment [2] (setting [3]) was > 0.1 mg/kg; in experiment [2] (setting [4]), 2.5 mg/kg.
With `CN1C[C@H](C(=O)N[C@]2(C)O[C@@]3(O)[C@@H]4CCCN4C(=O)[C@H](Cc4ccccc4)N3C2=O)C[C@@H]2c3cccc4[nH]cc(c34)C[C@H]21` [Dihydroergotamine, reference compound], the IC50 in experiment [1] is 0.015 µg/mL (≈ 0.0257 µM). For the same compound, the ED50 in experiment [2] (setting [3]) amounted to 0.08 mg/kg; in experiment [2] (setting [4]), 15 mg/kg.
On the same counts, the results for `CO[C@]12C[C@@H](COC(=O)c3c(C)c[nH]c3C)CN(C)[C@@H]1Cc1cn(C)c3cccc2c13` [1,6-Dimethyl-8β-[2', 4'-dimethyl-3'-pyrroyloxymethyl]-10α-methoxyergoline] are 0.07 µg/mL (≈ 0.166 µM), 0.1 mg/kg and 0.7 mg/kg.
